# In patent publication US11208412B2 (DAEGU-GYEONGBUK MEDICAL INNOVATION FOUNDATION, priority 2017, dated 2021):
# Where two headings read alike, the source gives them in different places.
# What was measured:
# Assay in all cases: Kinase selectivity, DiscoverX scanMAX Kinase assay panel (% control)
# Assay type in all cases: binding
# [1] = target: T1, kinases of the scanMAX Kinase assay panel (Homo sapiens, UniProt O75582); conditions: 1 uM in DMSO
# T1 construct: purchased DiscoverX Co. (contract measurement) scanMAX Kinase assay panel
# T1 sequence (O75582 whole entry): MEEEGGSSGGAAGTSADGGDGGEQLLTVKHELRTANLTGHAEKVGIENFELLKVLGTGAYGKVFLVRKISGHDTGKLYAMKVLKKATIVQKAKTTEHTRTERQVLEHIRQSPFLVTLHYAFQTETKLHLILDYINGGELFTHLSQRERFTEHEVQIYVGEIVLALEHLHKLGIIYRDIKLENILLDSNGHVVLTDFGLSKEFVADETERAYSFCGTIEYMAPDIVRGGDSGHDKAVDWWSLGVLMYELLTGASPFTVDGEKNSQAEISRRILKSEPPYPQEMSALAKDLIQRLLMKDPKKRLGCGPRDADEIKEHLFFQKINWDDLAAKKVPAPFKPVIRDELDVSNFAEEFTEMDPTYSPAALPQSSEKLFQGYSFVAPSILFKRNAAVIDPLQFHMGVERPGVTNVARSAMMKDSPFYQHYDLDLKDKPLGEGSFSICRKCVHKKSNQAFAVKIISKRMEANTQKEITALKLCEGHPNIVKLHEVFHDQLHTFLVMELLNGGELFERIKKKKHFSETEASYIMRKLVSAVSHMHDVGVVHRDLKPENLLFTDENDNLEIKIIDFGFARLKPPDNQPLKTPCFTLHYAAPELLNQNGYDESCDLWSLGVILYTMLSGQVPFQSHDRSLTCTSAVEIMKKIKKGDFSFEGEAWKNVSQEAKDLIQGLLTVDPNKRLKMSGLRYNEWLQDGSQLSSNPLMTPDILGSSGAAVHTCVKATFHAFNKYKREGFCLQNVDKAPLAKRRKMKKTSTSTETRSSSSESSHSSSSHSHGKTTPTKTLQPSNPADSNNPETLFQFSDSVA
# Procedure: (§1) The following experiment was performed to evaluate the activity of the compounds of the present invention to inhibit many enzymes.
# (§2) Particularly, the compounds of Examples 8, 64 and 104 were selected among all of those compounds of the invention. DiscoverX Co. was asked to measure the enzyme (kinase) selectivity, and the experiment was performed using scanMAX™ Kinase assay panel.
# (§3) Wherein, the concentration of the drug treated to each enzyme was 1 uM in DMSO and the control percentage (% control) was determined by the following Equation 1. (example compound−positive control)/(negative control−positive control)×100 [Equation 1]
# (§4) Herein, the positive control indicates the compound showing the % control of 0%, and the negative control indicates DMSO showing the % control of 100%. The enzyme selectivity in the present invention is defined as follows: When the % control for each enzyme is less than 35% (<35%), it is judged that the compound has the activity to the corresponding enzyme.
# [2] = target: T2, kinases of the scanMAX Kinase assay panel (Homo sapiens, UniProt Q8NEB9); conditions: kinase VPS34; 1 uM in DMSO
# T2 construct: purchased DiscoverX Co. (contract measurement) scanMAX Kinase assay panel
# T2 sequence (Q8NEB9 whole entry): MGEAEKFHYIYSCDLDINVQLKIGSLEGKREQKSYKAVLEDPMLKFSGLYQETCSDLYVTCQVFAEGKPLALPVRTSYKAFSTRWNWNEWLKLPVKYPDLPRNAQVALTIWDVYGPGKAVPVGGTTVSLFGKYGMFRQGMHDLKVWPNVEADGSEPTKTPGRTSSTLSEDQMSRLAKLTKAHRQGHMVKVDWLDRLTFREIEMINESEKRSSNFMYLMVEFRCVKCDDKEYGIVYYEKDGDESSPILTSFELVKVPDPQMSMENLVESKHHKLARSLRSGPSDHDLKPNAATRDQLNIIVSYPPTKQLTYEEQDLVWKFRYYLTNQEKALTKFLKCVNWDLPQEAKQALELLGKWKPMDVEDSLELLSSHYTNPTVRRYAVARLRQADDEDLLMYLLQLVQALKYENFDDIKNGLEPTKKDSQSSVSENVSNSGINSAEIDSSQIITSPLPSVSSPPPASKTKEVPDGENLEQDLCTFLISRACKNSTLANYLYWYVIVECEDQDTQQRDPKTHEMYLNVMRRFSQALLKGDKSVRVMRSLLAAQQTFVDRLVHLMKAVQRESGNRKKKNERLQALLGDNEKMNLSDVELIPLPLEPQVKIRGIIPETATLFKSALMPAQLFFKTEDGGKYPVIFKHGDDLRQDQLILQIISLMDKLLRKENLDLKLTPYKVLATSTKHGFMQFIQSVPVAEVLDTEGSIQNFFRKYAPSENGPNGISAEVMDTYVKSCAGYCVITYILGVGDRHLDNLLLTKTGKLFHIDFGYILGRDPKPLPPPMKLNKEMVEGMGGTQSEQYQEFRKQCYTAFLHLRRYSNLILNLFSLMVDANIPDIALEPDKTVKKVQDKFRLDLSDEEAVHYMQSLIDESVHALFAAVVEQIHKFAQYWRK
# Procedure: as §1, §2, §3, §4
# [3] = target: T3, kinases of the scanMAX Kinase assay panel (Homo sapiens, UniProt Q9Y2K2); conditions: QSK; 1 uM
# T3 construct: purchased DiscoverX Co. (contract measurement) scanMAX Kinase assay panel
# T3 sequence (Q9Y2K2 whole entry): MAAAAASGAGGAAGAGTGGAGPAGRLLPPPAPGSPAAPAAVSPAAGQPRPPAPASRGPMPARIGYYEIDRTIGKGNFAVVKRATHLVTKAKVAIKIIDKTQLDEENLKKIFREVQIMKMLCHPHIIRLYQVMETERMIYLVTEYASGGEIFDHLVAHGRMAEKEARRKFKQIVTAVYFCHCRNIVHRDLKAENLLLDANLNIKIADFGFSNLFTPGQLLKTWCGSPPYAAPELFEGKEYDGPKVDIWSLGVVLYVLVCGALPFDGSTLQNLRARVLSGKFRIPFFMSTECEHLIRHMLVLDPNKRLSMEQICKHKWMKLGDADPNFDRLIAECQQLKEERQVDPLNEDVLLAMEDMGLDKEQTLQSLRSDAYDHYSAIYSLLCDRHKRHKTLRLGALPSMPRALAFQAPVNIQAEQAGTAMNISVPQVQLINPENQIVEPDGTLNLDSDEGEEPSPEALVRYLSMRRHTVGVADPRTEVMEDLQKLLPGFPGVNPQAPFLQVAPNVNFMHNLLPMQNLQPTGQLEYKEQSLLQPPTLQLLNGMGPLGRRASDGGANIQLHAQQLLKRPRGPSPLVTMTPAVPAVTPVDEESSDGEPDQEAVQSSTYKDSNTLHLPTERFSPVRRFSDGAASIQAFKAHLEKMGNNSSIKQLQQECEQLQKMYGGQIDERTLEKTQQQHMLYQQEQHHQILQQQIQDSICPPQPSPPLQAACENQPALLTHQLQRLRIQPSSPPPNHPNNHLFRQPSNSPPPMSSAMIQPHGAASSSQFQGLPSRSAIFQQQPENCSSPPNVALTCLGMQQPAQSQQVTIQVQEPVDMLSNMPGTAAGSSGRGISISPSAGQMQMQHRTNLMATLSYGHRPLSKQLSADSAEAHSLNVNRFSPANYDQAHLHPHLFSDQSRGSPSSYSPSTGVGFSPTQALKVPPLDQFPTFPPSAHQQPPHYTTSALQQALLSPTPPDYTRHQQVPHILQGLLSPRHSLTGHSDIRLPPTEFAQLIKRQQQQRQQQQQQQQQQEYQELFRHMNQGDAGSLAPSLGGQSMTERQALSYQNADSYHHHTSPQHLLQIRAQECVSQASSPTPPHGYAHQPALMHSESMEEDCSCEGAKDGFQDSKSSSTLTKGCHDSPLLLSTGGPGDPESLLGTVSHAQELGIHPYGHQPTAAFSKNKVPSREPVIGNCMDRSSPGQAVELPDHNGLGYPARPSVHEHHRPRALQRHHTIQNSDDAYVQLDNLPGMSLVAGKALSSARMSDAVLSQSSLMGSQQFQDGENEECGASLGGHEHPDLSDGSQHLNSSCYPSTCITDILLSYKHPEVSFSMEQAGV
# Procedure: as §1, §2, §3, §4
# [4] = target: T4, kinases of the scanMAX Kinase assay panel (Homo sapiens, UniProt Q99558); conditions: NIK; 1 uM
# T4 construct: purchased DiscoverX Co. (contract measurement) scanMAX Kinase assay panel
# T4 sequence (Q99558 whole entry): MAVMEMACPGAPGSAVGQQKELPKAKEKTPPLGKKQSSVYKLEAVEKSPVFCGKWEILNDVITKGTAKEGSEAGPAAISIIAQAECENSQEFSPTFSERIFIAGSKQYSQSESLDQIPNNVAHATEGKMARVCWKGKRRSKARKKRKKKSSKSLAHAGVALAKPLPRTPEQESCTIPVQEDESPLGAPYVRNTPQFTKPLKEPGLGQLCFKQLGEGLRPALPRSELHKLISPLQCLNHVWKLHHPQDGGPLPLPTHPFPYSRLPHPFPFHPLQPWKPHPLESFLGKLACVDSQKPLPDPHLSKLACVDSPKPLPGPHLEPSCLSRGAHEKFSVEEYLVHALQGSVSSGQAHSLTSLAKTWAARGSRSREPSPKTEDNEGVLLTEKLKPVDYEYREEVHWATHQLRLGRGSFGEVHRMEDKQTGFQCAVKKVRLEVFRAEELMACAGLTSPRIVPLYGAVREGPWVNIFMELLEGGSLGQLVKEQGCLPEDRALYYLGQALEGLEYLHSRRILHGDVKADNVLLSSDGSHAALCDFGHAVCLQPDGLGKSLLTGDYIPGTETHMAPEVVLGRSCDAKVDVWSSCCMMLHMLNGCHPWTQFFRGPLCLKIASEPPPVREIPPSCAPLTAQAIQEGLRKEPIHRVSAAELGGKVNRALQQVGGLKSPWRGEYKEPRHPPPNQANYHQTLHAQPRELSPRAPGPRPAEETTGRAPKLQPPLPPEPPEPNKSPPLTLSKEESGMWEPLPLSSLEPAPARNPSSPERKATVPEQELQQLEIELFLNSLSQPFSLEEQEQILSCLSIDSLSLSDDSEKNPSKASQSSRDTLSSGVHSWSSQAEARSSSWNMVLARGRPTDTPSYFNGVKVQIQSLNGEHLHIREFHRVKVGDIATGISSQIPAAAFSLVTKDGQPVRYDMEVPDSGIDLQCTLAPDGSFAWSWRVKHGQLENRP
# Procedure: as §1, §2, §3, §4
# [5] = target: T5, kinases of the scanMAX Kinase assay panel (Homo sapiens, UniProt P54753); conditions: EPHB3; 1 uM
# T5 construct: purchased DiscoverX Co. (contract measurement) scanMAX Kinase assay panel
# T5 sequence (P54753 34-998): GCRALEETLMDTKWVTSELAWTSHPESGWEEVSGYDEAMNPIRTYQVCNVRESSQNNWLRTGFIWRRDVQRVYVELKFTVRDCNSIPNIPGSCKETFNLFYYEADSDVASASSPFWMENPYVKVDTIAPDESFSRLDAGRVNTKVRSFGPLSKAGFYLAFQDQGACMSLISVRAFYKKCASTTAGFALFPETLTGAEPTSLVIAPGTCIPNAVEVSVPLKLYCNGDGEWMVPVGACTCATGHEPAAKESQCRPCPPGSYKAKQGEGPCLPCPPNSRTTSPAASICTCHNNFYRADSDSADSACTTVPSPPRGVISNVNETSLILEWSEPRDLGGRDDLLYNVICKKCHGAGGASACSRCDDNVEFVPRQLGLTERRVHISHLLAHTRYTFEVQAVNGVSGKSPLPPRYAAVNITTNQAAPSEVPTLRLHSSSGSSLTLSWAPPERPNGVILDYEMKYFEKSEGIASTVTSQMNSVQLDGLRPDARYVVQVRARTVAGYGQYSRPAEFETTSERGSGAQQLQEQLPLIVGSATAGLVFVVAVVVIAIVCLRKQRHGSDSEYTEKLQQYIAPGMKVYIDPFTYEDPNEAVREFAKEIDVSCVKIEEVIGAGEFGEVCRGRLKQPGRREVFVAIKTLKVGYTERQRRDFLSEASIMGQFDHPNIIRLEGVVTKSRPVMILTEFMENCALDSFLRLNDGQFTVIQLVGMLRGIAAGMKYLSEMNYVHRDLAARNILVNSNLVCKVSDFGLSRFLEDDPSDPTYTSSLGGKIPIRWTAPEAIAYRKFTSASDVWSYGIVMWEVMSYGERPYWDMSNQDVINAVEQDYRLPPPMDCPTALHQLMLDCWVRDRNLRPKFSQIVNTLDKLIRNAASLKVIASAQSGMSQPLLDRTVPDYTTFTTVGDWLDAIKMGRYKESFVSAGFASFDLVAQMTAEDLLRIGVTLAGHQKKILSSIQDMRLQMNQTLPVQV
# Procedure: as §1, §2, §3, §4
# [6] = target: T6, kinases of the scanMAX Kinase assay panel (Homo sapiens, UniProt P51955); conditions: NEK2; 1 uM
# T6 construct: purchased DiscoverX Co. (contract measurement) scanMAX Kinase assay panel
# T6 sequence (P51955 1-445): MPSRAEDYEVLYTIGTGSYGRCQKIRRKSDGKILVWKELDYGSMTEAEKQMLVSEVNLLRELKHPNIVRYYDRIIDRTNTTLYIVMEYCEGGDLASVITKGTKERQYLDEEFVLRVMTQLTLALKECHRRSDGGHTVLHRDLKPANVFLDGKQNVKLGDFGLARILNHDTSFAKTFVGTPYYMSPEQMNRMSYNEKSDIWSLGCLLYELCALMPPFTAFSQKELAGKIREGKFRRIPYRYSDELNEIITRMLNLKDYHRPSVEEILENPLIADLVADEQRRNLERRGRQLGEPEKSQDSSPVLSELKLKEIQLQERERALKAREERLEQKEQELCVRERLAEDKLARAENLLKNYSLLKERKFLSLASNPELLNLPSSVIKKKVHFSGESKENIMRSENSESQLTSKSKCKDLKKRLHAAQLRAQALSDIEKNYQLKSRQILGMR
# Procedure: as §1, §2, §3, §4
# [7] = target: T7, kinases of the scanMAX Kinase assay panel (Homo sapiens, UniProt P49841); conditions: GSK3B; 1 uM
# T7 construct: purchased DiscoverX Co. (contract measurement) scanMAX Kinase assay panel
# T7 sequence (P49841 whole entry): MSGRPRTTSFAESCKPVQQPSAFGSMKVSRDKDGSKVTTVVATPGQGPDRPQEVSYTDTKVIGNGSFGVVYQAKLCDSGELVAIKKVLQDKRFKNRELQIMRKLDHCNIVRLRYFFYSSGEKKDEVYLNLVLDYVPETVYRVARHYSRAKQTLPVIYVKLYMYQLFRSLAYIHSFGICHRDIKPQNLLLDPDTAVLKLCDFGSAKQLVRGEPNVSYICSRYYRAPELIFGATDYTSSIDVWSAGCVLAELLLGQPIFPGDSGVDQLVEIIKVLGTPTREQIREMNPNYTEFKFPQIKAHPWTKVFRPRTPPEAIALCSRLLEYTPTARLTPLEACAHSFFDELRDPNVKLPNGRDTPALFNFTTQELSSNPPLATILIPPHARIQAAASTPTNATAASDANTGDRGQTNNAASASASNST
# Procedure: as §1, §2, §3, §4
# [8] = kinase RPS6KA5(Kin.Dom.1-N-terminal), read-out: % control, RPS6KA5(Kin.Dom.1-N-terminal)
# [9] = kinase RPS6KA5(Kin.Dom.2-C-terminal), read-out: % control, RPS6KA5(Kin.Dom.2-C-terminal)
Structure (SMILES),"remaining binding at 1 µM [1, 8] [%]","remaining binding at 1 µM [1, 9] [%]",remaining binding at 1 µM [2] [%],remaining binding at 1 µM [3] [%],remaining binding at 1 µM [4] [%],remaining binding at 1 µM [5] [%],remaining binding at 1 µM [6] [%],remaining binding at 1 µM [7] [%]
"CNc1nc(Nc2ccc(C(=O)N3CCOCC3)cc2OC)nc2[nH]cc(C#N)c12 [Example 1, 2-((2-methoxy-4-(morpholine-4-carbonyl)phenyl)amino)-4-(methylamino)-7H-pyrrolo[2,3-d]pyrimidine-5-carbonitrile]",94,12,84,79,3.7,93,97,79
"CC1(Nc2nc(Nc3cnn([C@H]4CCN(C5COC5)C[C@@H]4F)c3Cl)nc3[nH]cc(C#N)c23)CC1 [Example 52, 2-((5-chloro-1-((3S,4S)-3-fluoro-1-(oxetane-3-yl)piperidine-4-yl)-1H-pyrazole-4-yl)amino)((1-methylcyclopropyl)amino)-7H-pyrrolo[2,3-d]pyrimidine-5-carbonitrile]",100,24,100,87,7.4,95,70,50
"CCNc1nc(Nc2ccc(C(=O)N3CCC(N4CCOCC4)CC3)cc2OC)nc2[nH]cc(C(F)(F)F)c12 [Example 104, (4-((4-(ethylamino)-5-(trifluoromethyl)-7H-pyrrolo[2,3-d]pyrimidine-2-yl)amino)-3-methoxyphenyl)(4-morpholinopiperidine-1-yl)methanone]",100,83,78,97,16,100,74,83
